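Where inhibition never reached the appropriate level, the endpoint shown equals the highest concentration tested. Otherwise, values were interpolated linearly from a five-concentration, 48-hour dose response in 96-well plates. GI50 is the concentration that inhibits growth by half. TGI is the concentration that stops growth completely.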
Key:
Assay in all cases: growth of human tumour cells (NCI), 48 h
MDA-MB-435 = tested on: MDA-MB-435
SK-MEL-2 melanoma = tested on: SK-MEL-2 melanoma
UO-31 renal = tested on: UO-31 renal
PC-3 prostate = tested on: PC-3 prostate
SW-620 colon = tested on: SW-620 colon
HS 578T breast = tested on: HS 578T breast
IGROV1 ovarian = tested on: IGROV1 ovarian
HCT-15 colon = tested on: HCT-15 colon
KM12 colon = tested on: KM12 colon
SNB-19 CNS = tested on: SNB-19 CNS

Compound | GI50 (MDA-MB-435) [µM] | TGI (MDA-MB-435) [µM] | GI50 (SK-MEL-2 melanoma) [µM] | TGI (SK-MEL-2 melanoma) [µM] | GI50 (UO-31 renal) [µM] | TGI (UO-31 renal) [µM] | GI50 (PC-3 prostate) [µM] | TGI (PC-3 prostate) [µM] | GI50 (SW-620 colon) [µM] | TGI (SW-620 colon) [µM] | GI50 (HS 578T breast) [µM] | TGI (HS 578T breast) [µM] | GI50 (IGROV1 ovarian) [µM] | TGI (IGROV1 ovarian) [µM] | GI50 (HCT-15 colon) [µM] | TGI (HCT-15 colon) [µM] | GI50 (KM12 colon) [µM] | TGI (KM12 colon) [µM] | GI50 (SNB-19 CNS) [µM] | TGI (SNB-19 CNS) [µM]
CCNCCNc1cc(C2CCCCC2)c(C#N)c2nc3ccccc3n12 | 1.73 | 3.4 | 2.29 | 4.71 | 1.66 | 3.36 | 4.81 | 16 | 1.44 | 3.15 | 2.4 | 5.42 | 2.38 | 7.04 | 1.69 | 3.46 | 2.76 | 8.48 | 4.9 | 18.4
CCCOC(=O)CCn1c(SC)nc2[nH]cc(-c3ccccc3)c2c1=O | 17.5 | 38.5 | 25.5 | 63.5 | 23.9 | 75.5 | 14.6 | 50.1 | 28.3 | > 100 | 28.1 | > 100 | 13.5 | 49.6 | 37.7 | > 100 | 18.7 | 53.8 | 31.7 | > 100
Nc1cc(N)c2nc(-c3ccccc3)c(NCc3ccc(F)cc3)nc2c1 | 2.01 | 3.74 | 5.21 | > 100 | 3.81 | > 100 | 3.5 | 15.6 | 2.21 | 9.52 | 4.86 | > 100 | 3.11 | > 100 | 3.34 | 19.1 | 2.82 | 7.38 | 6.68 | 20.1
CCCCCCCOc1c(OC)cc(C2CC(=O)Nc3c2c(C)nn3-c2nc3ccccc3[nH]2)cc1OC (stereo unspecified) | 2.42 | 6.08 | 3.28 | 12.6 | 1.63 | 4.82 | 3.67 | > 100 | 2.11 | 5.18 | 1.35 | 4.43 | 2.74 | 10.1 | 3.12 | > 100 | 2.81 | 9.81 | 3.93 | > 100
O=C(CCCSc1nc(-c2ccccc2)cc(-c2ccc(Cl)cc2)n1)NO | 3.11 | 14.8 | 4.39 | 18.5 | 0.352 | 2.1 | 2.19 | 12.3 | 1.66 | 13 | 4.78 | 24 | 2.08 | 11.7 | 0.382 | 13.5 | 2.96 | 14.2 | 3.12 | 14.9
Nc1n[nH]c2ccc([C@@H]3Nc4ccc5[nH]ncc5c4[C@H]4C5C=CC(C5)[C@@H]34)cc12 (stereo partly specified) | 0.0794 | 0.444 | 4.14 | 28 | 0.769 | 31.7 | 0.407 | 22.7 | 0.367 | 40.4 | 0.27 | 21.2 | 0.497 | 24.9 | 0.316 | 13.5 | 0.39 | 11.4 | 0.59 | 61.3
CS(=O)(=O)Nc1ccc(N=Cc2c(O)[nH]c3ccccc23)cc1 | > 25 | > 25 | > 25 | > 25 | > 8.56 | > 25 | > 25 | > 25 | > 25 | > 25 | > 25 | > 25 | > 25 | > 25 | > 25 | > 25 | 1.2 | > 25 | > 25 | > 25
CN(C(=O)c1ccncc1)c1ccccc1 |  | > 100 |  | > 100 |  | > 100 |  | > 100 |  | > 100 |  | > 100 |  | > 100 |  | > 100 |  | > 100 |  | > 100
CSC1(SC2=NCCN2)SC2(NCCN2)S1 |  | 31.3 |  | 39.4 |  | 32.2 |  | 34.3 |  | 51.6 |  | 69.1 |  | 35.7 |  | 41.2 |  | 5.37 |  | 41.9
O=C(COc1cccc(/C=C2\COc3ccc(Cl)cc3C2=O)c1)c1ccc(Cl)cc1 | 5.91 | 18.6 | 7.4 | 21.1 | 5.13 | 19.4 | 12.4 | 28.9 | 3.3 | 13 | 18.8 | 48.7 | 0.54 | 3.7 | 12.2 | 24.7 | 2.79 | 11.2 | 14.5 | 27.7
CC(C)(C#N)c1cc(C(=O)Nc2cc(Nc3ncccc3-c3ncnc4nc[nH]c34)ccc2F)cc(C(F)(F)F)c1 | 0.217 | > 3.22 | 0.315 | > 2.08 | 0.189 |  |  | > 4.27 | 0.58 | > 10 | 0.919 | > 2.33 | 0.521 | > 2.59 |  | > 2.22 | 1.18 | > 2.09 | > 2.15 | > 10
Cn1cc(-c2ccc(-c3cn(C)c4ccc(Cl)cc34)s2)c2cc(Cl)ccc21 | > 100 | > 100 | > 100 | > 100 | > 100 | > 100 | > 100 | > 100 | > 100 | > 100 | > 100 | > 100 | > 100 | > 100 | > 100 | > 100 | > 100 | > 100 | > 100 | > 100
O=C(CN1CCN(c2ccccc2)CC1)N1CCN(c2nnc(-c3ccc(Cl)cc3)c(-c3ccc(Cl)cc3)n2)CC1 | 13.7 | > 100 | 12.4 | 42.2 | 2.04 | > 100 | 7.44 | > 100 | 16.1 | > 100 | 16.5 | > 100 | 6.5 | 40.8 | 6.35 | > 100 | 5.4 | > 100 | 37.2 | > 100
c1ccc(CSc2nnc3c4ccccc4c4ccccc4c3n2)cc1 |  | > 100 |  | > 79.7 |  | > 100 |  | > 100 |  | > 100 |  | > 100 |  | > 46.6 |  | > 100 |  | > 100 |  | > 78.1
Cc1ccc2c(c1)C(=O)c1c-2n(CCCBr)c(=O)c2cc([N+](=O)[O-])ccc12 | > 100 | > 100 | > 100 | > 100 | 27.5 | > 100 | 17.4 | > 100 | 51.6 | > 100 | > 100 | > 100 | 6.65 | 65.8 | 97.8 | > 100 | > 100 | > 100 | 47.9 | > 100
CCCCNC(=O)NS(=O)(=O)c1ccc(N2N=C(c3cc(C)ccc3C)CC2c2cc(OC)c(OC)c(OC)c2)cc1 (stereo unspecified) | 1.75 | 4.24 | 2.2 | 4.84 | 3.07 | 12.3 | 1.94 | 10.4 | 3.26 | 12.8 | 2.2 | 5.78 | 3.19 | 9.96 | 2.81 | 11.1 | 2.25 | 5.26 | 2.75 | 12.7
COc1cc(C2CC(c3ccc(N(C)C)cc3)=NN2C(C)=O)cc(OC)c1OC (stereo unspecified) | 0.231 | 1.18 | 12.9 | > 100 | 3.59 | > 100 | 1.42 | > 100 | 0.928 | > 100 | 0.441 | 3.03 | 2.65 | > 100 | 1 | > 100 | 0.933 | > 52.8 |  | > 100
Cc1[nH]c2ccccc2c1CCNCc1ccc(/C=C/C(=O)NO)cc1 | < 0.01 | 0.0502 | < 0.012 | 0.0532 | 0.0129 | 0.0637 | < 0.0114 | 2.86 | < 0.01 | 0.0219 | < 0.01 | 0.0554 | 0.0168 | 0.0721 | 0.0676 | 12.9 | 0.0193 | 0.112 | 0.0244 | 0.323
O=C(N/N=C/c1cc([N+](=O)[O-])ccc1O)c1cccc2ccccc12 | 7.18 | > 100 | 6.69 | > 100 | 1.8 | 19.5 | 6.85 | 64.9 | 3.7 | > 100 | 12.8 | > 100 | 2.36 | 8.47 | 2.55 | > 100 | 4.66 | > 100 | 7.65 | > 100
Cn1ccnc1C(=O)/C=C/c1ccc(CC(=O)Nc2ccc(C(F)(F)F)cc2)cc1 | 3.88 | 12.5 | 4.95 | 11.3 | 2.51 | 4.76 | 1.01 | 4.6 | 4.17 | > 16.7 | 6.14 | > 16.7 | 4.37 | 12.9 | 1.4 | > 16.7 | 3.23 | 8.69 | 2.46 | 5.09
CSc1ccccc1C#Cc1ccccc1C#CCCCCO | 3.9 | 15.2 | 17.9 | 35.4 | 12.6 | 25.4 | 16.2 | 38 | 11 | 26.2 | 7.62 | 32.3 | 14 | 27.5 | 3.85 | 15.9 | 3.39 | 16.9 | 17.8 | 33.5

From PubChem BioAssay (NCI)
